Measured values as given in the NIST ThermoML archive (doi:10.1021/je800248w).
± gives the expanded uncertainty stated by the source.

Experiments:
[1] = molar heat capacity at constant pressure; details: 101.3 kPa, Liquid, Small sample (50 mg) DSC
[2] = molar heat capacity at constant pressure; xn = mol fraction of the nth substance listed; details: 101.3 kPa, Liquid, Small sample (50 mg) DSC, x1 = 1

Compound	molar heat capacity at constant pressure ([1]; 283.15 K)	molar heat capacity at constant pressure ([1]; 293.15 K)	molar heat capacity at constant pressure ([1]; 303.15 K)	molar heat capacity at constant pressure ([1]; 313.15 K)	molar heat capacity at constant pressure ([1]; 323.15 K)	molar heat capacity at constant pressure ([1]; 333.15 K)	molar heat capacity at constant pressure ([1]; 343.15 K)	molar heat capacity at constant pressure ([2]; 283.15 K)	molar heat capacity at constant pressure ([2]; 293.15 K)	molar heat capacity at constant pressure ([2]; 303.15 K)	molar heat capacity at constant pressure ([2]; 313.15 K)	molar heat capacity at constant pressure ([2]; 323.15 K)	molar heat capacity at constant pressure ([2]; 333.15 K)	molar heat capacity at constant pressure ([2]; 343.15 K)
CCn1cc[n+](C)c1.O=C([O-])C(F)(F)F [1-ethyl-3-methylimidazolium trifluoroacetate]	308 ± 25 J/K/mol	313 ± 25 J/K/mol	320 ± 26 J/K/mol	324 ± 26 J/K/mol	328 ± 27 J/K/mol	332 ± 27 J/K/mol	337 ± 27 J/K/mol							
O [water]	75 ± 6 J/K/mol	75 ± 6 J/K/mol	75 ± 6 J/K/mol	75 ± 6 J/K/mol	75 ± 6 J/K/mol	75 ± 6 J/K/mol	75 ± 6 J/K/mol							
O [water] + CCOS(=O)(=O)[O-].CCn1cc[n+](C)c1								75 ± 6 J/K/mol	75 ± 6 J/K/mol	75 ± 6 J/K/mol	75 ± 6 J/K/mol	75 ± 6 J/K/mol	75 ± 6 J/K/mol	75 ± 6 J/K/mol
O [water] + CCn1cc[n+](C)c1.O=C([O-])C(F)(F)F								75 ± 6 J/K/mol	75 ± 6 J/K/mol	75 ± 6 J/K/mol	75 ± 6 J/K/mol	75 ± 6 J/K/mol	75 ± 6 J/K/mol	75 ± 6 J/K/mol
O [water] + CCn1cc[n+](C)c1.O=S(=O)([O-])C(F)(F)F								75 ± 6 J/K/mol	75 ± 6 J/K/mol	75 ± 6 J/K/mol	75 ± 6 J/K/mol	75 ± 6 J/K/mol	75 ± 6 J/K/mol	75 ± 6 J/K/mol

Second part, the compound after the results:

molar heat capacity at constant pressure ([1]; 283.15 K)	molar heat capacity at constant pressure ([1]; 293.15 K)	molar heat capacity at constant pressure ([1]; 303.15 K)	molar heat capacity at constant pressure ([1]; 313.15 K)	molar heat capacity at constant pressure ([1]; 323.15 K)	molar heat capacity at constant pressure ([1]; 333.15 K)	molar heat capacity at constant pressure ([1]; 343.15 K)	molar heat capacity at constant pressure ([2]; 283.15 K)	molar heat capacity at constant pressure ([2]; 293.15 K)	molar heat capacity at constant pressure ([2]; 303.15 K)	molar heat capacity at constant pressure ([2]; 313.15 K)	molar heat capacity at constant pressure ([2]; 323.15 K)	molar heat capacity at constant pressure ([2]; 333.15 K)	molar heat capacity at constant pressure ([2]; 343.15 K)	Compound
365 ± 30 J/K/mol	371 ± 30 J/K/mol	380 ± 31 J/K/mol	386 ± 31 J/K/mol	392 ± 32 J/K/mol	397 ± 32 J/K/mol	403 ± 33 J/K/mol								CCOS(=O)(=O)[O-].CCn1cc[n+](C)c1 [1-ethyl-3-methylimidazolium ethyl sulfate]
353 ± 29 J/K/mol	358 ± 29 J/K/mol	366 ± 30 J/K/mol	371 ± 30 J/K/mol	376 ± 31 J/K/mol	380 ± 31 J/K/mol	384 ± 31 J/K/mol								CCn1cc[n+](C)c1.O=S(=O)([O-])C(F)(F)F [1-ethyl-3-methylimidazolium trifluoromethanesulfonate]
